In US20250388529A1, “N-Substituted Phenylalkylamines and Their Use as Therapeutic Agents” (priority 2023, published 2025):
Values joined by “and” are separate entries in the source; they are usually repeats but may differ in a detail not shown here. Equal values may be shown once. “Also recorded” adds a separate entry of the source.

Legend:
human Nav1.1 and Navβ1 = human Nav1.1 and Navβ1 (Homo sapiens, UniProt P35498); assay: cell-based; settings: for Peak INa Density @ −20 mV: I-V curve
HiBiT-5-HT2A [1] = biological target: T1, HiBiT-5-HT2A (Homo sapiens, UniProt P28223); assay: NanoBRET Target Engagement competitive displacement of […], HiBiT-5-HT2A transiently expressed in HEK293 cells; settings: equilibrium competitive displacement, Cheng-Prusoff; read-out: KI (binding affinity) at 5-HT2A
T1 construct: expressed in transfected cells; host or cells: HEK293 (transient)
T1 sequence (P28223 whole entry): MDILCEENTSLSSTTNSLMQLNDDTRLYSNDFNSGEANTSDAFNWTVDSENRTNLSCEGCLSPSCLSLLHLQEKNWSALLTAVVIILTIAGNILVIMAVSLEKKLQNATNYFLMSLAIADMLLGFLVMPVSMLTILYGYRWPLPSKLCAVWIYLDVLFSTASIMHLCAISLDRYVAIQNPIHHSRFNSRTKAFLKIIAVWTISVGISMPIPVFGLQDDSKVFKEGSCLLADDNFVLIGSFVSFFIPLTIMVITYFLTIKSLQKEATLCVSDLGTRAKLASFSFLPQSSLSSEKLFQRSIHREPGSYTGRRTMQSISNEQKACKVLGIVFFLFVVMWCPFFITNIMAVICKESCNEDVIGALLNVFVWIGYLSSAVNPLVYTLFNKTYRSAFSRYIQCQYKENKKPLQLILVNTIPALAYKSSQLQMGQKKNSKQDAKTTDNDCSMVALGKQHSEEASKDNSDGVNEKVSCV

HiBiT-5-HT2A [2] = biological target: T1, HiBiT-5-HT2A; assay: NanoBRET kinetic measurement of ligand binding to HiBiT-5-HT2A (Motulsky-Mahan)
human Nav1.1 = human Nav1.1 (Homo sapiens, UniProt P35498); assay: Manual whole-cell patch clamp sodium current recording, HEK cells stably expressing human Nav1.1; format: cell-based; settings: 10 μM
Procedure: Cell lines: Human Embryonic Kidney (HEK) 293 cells stably expressing human VGSC a subunit Nav1.1 (GenBank accession number NP_008851.3) were a gift from Dr. Massimo Mantegazza. Human VGSC β1 subunit GenBank accession number NP_001028.1) cDNA was transfected into this line to generate a second, stable line. Cells were cultured in Dulbecco's Modified Eagle Medium containing (4.5 g/L D-glucose, L-glutamine, 110 mg/L sodium pyruvate, 200 μg/mL G418, 100 U/mL penicillin/streptomycin). All cells were maintained in an incubator at 37° C. with 5% CO2.
Manual Sodium Current Recording: Sodium current (INa) was measured at room temperature using the manual whole-cell patch clamp technique with previously described electrophysiological methods (Chen et al., J Biol Chem., 2012; 287 (46): 39061-39069). Cells were plated on 12 mm diameter clear glass poly-D-lysine coated coverslips (Neuvitro) and used for electrophysiological recordings within 48 hours after plating. Cells were identified with an AIR upright confocal microscope (Nikon). […] Data were acquired with a Digidata 1440A interface (Molecular Devices) and analyzed using pClamp10 offline. […] All manual whole-cell INa recorded under XOB conditions was conducted after 3.9 minutes of perfusion unless indicated otherwise.

HiBiT-5-HT2C = HiBiT-5-HT2C (Homo sapiens, UniProt P28335); assay: cell-based
Chain of HiBiT-5-HT2C (P28335 33-458): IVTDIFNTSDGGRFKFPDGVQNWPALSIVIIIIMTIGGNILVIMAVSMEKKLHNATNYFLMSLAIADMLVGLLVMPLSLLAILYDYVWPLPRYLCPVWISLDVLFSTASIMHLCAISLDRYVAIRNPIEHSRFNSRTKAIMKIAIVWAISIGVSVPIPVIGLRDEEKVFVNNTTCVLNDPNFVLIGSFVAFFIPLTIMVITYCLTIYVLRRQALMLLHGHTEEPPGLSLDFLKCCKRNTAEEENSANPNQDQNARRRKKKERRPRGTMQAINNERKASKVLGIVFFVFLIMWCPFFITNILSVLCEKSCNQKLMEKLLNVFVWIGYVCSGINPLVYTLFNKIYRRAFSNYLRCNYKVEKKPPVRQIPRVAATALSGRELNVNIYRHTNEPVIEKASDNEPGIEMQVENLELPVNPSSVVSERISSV

5-HT2B = 5-HT2B (Homo sapiens, UniProt P41595); assay: Gq-mediated calcium flux assay, Flp-In 293 T-Rex inducible cells (agonist and antagonist mode); format: cell-based; set-up: expressed in transfected cells
Chain of 5-HT2B (P41595 whole entry): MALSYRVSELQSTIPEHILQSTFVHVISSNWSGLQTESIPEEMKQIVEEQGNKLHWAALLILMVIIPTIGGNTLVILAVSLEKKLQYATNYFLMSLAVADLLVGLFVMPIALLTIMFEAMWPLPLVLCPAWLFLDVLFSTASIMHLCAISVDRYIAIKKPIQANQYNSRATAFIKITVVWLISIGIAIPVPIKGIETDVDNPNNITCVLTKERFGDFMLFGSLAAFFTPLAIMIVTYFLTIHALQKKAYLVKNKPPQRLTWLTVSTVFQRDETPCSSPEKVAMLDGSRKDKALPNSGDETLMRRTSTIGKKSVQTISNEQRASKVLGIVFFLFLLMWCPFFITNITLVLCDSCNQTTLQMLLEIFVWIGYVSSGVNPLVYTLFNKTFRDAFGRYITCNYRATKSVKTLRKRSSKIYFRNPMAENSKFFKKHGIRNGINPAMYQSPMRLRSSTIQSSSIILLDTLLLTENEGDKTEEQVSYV

HiBiT-5-HT1A = biological target: T2, HiBiT-5-HT1A (Homo sapiens, UniProt P08908); assay: cell-based; format: binding
T2 construct: expressed in transfected cells; host or cells: HEK293 (transient)
T2 sequence (P08908 whole entry): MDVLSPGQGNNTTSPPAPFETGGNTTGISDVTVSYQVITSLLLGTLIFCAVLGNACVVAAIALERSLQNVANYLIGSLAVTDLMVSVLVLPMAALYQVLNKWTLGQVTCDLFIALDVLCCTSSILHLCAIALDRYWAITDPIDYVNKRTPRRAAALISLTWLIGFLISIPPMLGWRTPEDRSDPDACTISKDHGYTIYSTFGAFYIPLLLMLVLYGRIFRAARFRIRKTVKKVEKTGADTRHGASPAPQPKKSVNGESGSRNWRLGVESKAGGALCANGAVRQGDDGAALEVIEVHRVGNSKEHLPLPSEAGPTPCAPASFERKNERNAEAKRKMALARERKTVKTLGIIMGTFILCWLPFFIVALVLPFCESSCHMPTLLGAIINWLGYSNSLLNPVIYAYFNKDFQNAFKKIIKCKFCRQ

In the case of `COc1cc(CCNCCCCCCOCCCCc2ccccc2)c(OC)cc1Br` [XOB, N-(4-bromo-2,5-dimethoxyphenethyl)-6-(4-phenylbutoxy)hexan-1-amine], the “Peak INa Density” value (human Nav1.1 and Navβ1; 1 nM, peak protocol) is reported as −386.1 ± 56.6 pA/pF, the “Peak INa Density @ −20 mV” value (human Nav1.1 and Navβ1; 10 nM) is reported as −319.1 ± 50.5 pA/pF and the “Normalized Peak INa Inhibition” value (human Nav1.1 and Navβ1; 10 nM, peak protocol) is reported as −0.011 ± 0.03. For the same molecule, the “Peak INa Density” value (human Nav1.1 and Navβ1; 10 nM, peak protocol) was −311.1 ± 41.7 pA/pF, the “Peak INa Density @ −20 mV” value (human Nav1.1 and Navβ1; 100 nM) was −258.3 ± 34.1 pA/pF and the “Normalized Peak INa Inhibition” value (human Nav1.1 and Navβ1; 100 nM, peak protocol) was 0.13 ± 0.02. For the same molecule, the “Peak INa Density” value (human Nav1.1 and Navβ1; 100 nM, peak protocol) was −276.0 ± 31.0 pA/pF, the “Peak INa Density @ −20 mV” value (human Nav1.1 and Navβ1; 300 nM) was −235.1 ± 37.9 pA/pF and the “Normalized Peak INa Inhibition” value (human Nav1.1 and Navβ1; 300 nM, peak protocol) was 0.08 ± 0.06. For the same molecule, the “Peak INa Density” value (human Nav1.1 and Navβ1; 300 nM, peak protocol) was −259.2 ± 38.0 pA/pF, the “Peak INa Density @ −20 mV” value (human Nav1.1 and Navβ1; 500 nM) was −269.2 ± 38.8 pA/pF and the “Normalized Peak INa Inhibition” value (human Nav1.1 and Navβ1; 500 nM, peak protocol) was 0.05 ± 0.07. The “Peak INa Density” value (human Nav1.1 and Navβ1; 500 nM, peak protocol) was −284.6 ± 35.2 pA/pF, the “Peak INa Density @ −20 mV” value (human Nav1.1 and Navβ1; 1 μM) was −320.5 ± 40.0 pA/pF and the “Normalized Peak INa Inhibition” value (human Nav1.1 and Navβ1; 1 μM, peak protocol) was 0.12 ± 0.03. For the same molecule, the “Peak INa Density” value (human Nav1.1 and Navβ1; 1 μM, peak protocol) was −319.1 ± 34.5 pA/pF, the “Activation Slope Factor” value (human Nav1.1 and Navβ1; 3 μM) was 6.18 ± 1.1 mV^−1 and the “Activation V1/2” value (human Nav1.1 and Navβ1; 3 μM) was −34.32 ± 1.8 mV. For the same molecule, the Capacitance (human Nav1.1 and Navβ1; 3 μM) was 11.17 ± 1.0 pF, the “Inactivation Slope Factor” value (human Nav1.1 and Navβ1; 3 μM) was −6.41 ± 0.7 mV^−1 and the “Inactivation V1/2” value (human Nav1.1 and Navβ1; 3 μM) was −60.46 ± 1.5 mV. For the same molecule, the “Peak INa Density @ −20 mV” value (human Nav1.1 and Navβ1; 3 μM) was −149.4 ± 22.4 pA/pF, the “Normalized Peak INa Inhibition” value (human Nav1.1 and Navβ1; 3 μM, peak protocol) was 0.36 ± 0.05 and the “Peak INa Density” value (human Nav1.1 and Navβ1; 3 μM, peak protocol) was −187.1 ± 23.3 pA/pF. The “Peak INa Density @ −20 mV” value (human Nav1.1 and Navβ1; 5 μM) was −115.6 ± 20.4 pA/pF, the “Normalized Peak INa Inhibition” value (human Nav1.1 and Navβ1; 5 μM, peak protocol) was 0.46 ± 0.06 and the “Peak INa Density” value (human Nav1.1 and Navβ1; 5 μM, peak protocol) was −171.3 ± 22.2 pA/pF. For the same molecule, the “reduction of baseline peak INa” value (human Nav1.1 and Navβ1; 10 μM) was 73±3%, the “Peak INa Density @ −20 mV” value (human Nav1.1 and Navβ1; 10 μM, step −120 mV to −20 mV) was −17.46±3.1 pA/pF and the “Peak INa Density” value (human Nav1.1 and Navβ1; 10 μM, peak protocol) was −85.4 ± 12.9 pA/pF. The “Normalized Peak INa Inhibition” value (human Nav1.1 and Navβ1; 10 μM, peak protocol, 1−(IDrug÷IReference)) was 0.73 ± 0.03, the IC50 (human Nav1.1 and Navβ1; concentration response curve, peak protocol, read-out: IC50, inhibition of peak INa (VGSC)) was 4.29 µM and the Ki (HiBiT-5-HT2A [1]) was 2.6 µM and 2 to 3 µM. For the same molecule, the “association rate at 5-HT2A relative to serotonin (in words)” value (HiBiT-5-HT2A [2]) was “two orders of magnitude slower”, the “association rate at 5-HT2A, fold slower than serotonin” value (HiBiT-5-HT2A [2]) was “about 24 fold” and the “original baseline INa density at 0 mV recovered after washout” value (human Nav1.1; 10 minutes of washing out) was 17.5±3.64%. For the same molecule, the “reduction of mean Nav1.1 peak INa density at 0 mV compared to baseline” value (human Nav1.1; acute perfusion, three cells) was 94.1±1.31%, the Ki (HiBiT-5-HT2C) was > 10 µM and the “agonist activity at 5-HT2B” value (5-HT2B; agonist mode, up to 10 μM) was “little to no measurable agonist activity”. For the same molecule, the “inhibition of 5-HT-mediated calcium flux at 5-HT2B” value (5-HT2B; antagonist mode, concentrations up to 10 μM) was < 50%, the “binding affinity at 5-HT1A (in words)” value (HiBiT-5-HT1A) was “no measurable affinity; also recorded: negligible binding affinity” and the Ki (HiBiT-5-HT1A; equilibrium competitive displacement, Cheng-Prusoff, read-out: KI (binding affinity) at 5-HT1A) was > 10 µM.
